Experimental data as given in patent US9034921B2, “Diphenylmethane derivatives as SGLT2 inhibitors” (GREEN CROSS CORPORATION, priority 2011, dated 2015).
pIC50: −log10 of the molar value. Counter-ions that a name gives are not always drawn.

What follows are compounds tested against human SGLT2 (Homo sapiens (Human), UniProt P31639) (assay: Inhibitory effects on human SGLT2 activities (14C-AMG uptake, sodium-dependent glucose transport assay)). Conditions: CHO cells stably expressing hSGLT2, 37° C., 2 h, single determinations.
Assay type: cell-based
How it was run: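 CHO cells stably expressing hSGLT2 were preincubated 10 min at 37 °C in choline (Na+-free) buffer, then exposed 2 h at 37 °C to compound in Na+ uptake buffer with 8 μM 14C-AMG and 1 mM unlabeled AMG. Radioactivity was scintillation counted; IC50 came from nonlinear regression.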

Chain of human SGLT2 (P31639 whole entry): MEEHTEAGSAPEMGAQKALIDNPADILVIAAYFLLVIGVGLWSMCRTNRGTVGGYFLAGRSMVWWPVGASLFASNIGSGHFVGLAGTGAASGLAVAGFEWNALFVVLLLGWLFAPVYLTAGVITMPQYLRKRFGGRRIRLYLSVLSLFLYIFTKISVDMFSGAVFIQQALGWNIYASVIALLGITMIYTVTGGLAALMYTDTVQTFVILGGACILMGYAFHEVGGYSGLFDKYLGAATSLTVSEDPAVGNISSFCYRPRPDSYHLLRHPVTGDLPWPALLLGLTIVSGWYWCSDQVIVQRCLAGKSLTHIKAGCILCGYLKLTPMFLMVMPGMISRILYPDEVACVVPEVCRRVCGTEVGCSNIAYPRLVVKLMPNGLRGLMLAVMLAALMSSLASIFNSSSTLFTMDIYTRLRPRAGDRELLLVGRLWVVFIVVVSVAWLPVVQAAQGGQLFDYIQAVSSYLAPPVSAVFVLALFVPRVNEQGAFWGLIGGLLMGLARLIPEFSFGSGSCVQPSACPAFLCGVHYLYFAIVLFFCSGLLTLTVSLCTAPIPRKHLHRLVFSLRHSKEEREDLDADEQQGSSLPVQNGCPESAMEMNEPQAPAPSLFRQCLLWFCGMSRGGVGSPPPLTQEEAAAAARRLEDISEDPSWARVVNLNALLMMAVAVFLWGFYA

| SMILES | pIC50 |
| --- | --- |
| CN(C)Cc1ccc(Cc2cc([C@@H]3O[C@H](CO)[C@@H](O)[C@H](O)[C@H]3O)c3c(c2Cl)OCC3)cc1 [Example E184, (2S,3R,4R,5S,6R)-2-(7-Chloro-6-(4-((dimethylamino)methyl)benzyl)-2,3-dihydrobenzofuran-4-yl)-6-(hydroxymethyl)tetrahydro-2H-pyran-3,4,5-triol trifluoro acetic acid salt] | 6.79 |
| CCOc1ccc(Cc2cc([C@@H]3O[C@H](CO)[C@@H](O)[C@H](O)[C@H]3O)c3c(c2Cl)OCCCO3)cc1 [Example E164, (2S,3R,4R,5S,6R)-2-(9-Chloro-8-(4-ethoxybenzyl)-3,4-dihydro-2H-benzo[b][1,4]dioxepin-6-yl)-6-(hydroxymethyl)tetrahydro-2H-pyran-3,4,5-triol] | 8.89 |
| OC[C@H]1O[C@@H](c2ccc(Cl)c(Cc3ccc4c(c3)CCS4)c2)[C@H](O)[C@@H](O)[C@@H]1O [Example E032, (2S,3R,4R,5S,6R)-2-(4-Chloro-3-((2,3-dihydrobenzo[b]thiophen-5-yl)methyl)phenyl)-6-(hydroxymethyl)tetrahydro-2H-pyran-3,4,5-triol] | 8.67 |
| OC[C@H]1O[C@@H](c2cc(Cc3ccc4c(c3)OCCO4)c(C(F)F)c3c2CCC3)[C@H](O)[C@@H](O)[C@@H]1O [Example E108, (2S,3R,4R,5S,6R)-2-(7-(Difluoromethyl)-6-((2,3-dihydrobenzo[b][1,4]dioxin-6-yl)methyl)-2,3-dihydro-1H-inden-4-yl)-6-(hydroxymethyl)tetrahydro-2H-pyran-3,4,5-triol] | 8.90 |
| CCOc1ccc(Cc2cc([C@@H]3O[C@H](CO)[C@@H](O)[C@H](O)[C@H]3O)c3c(c2Cl)OCC3C)cc1 (stereo partly drawn) [Example E224, (2S,3R,4R,5S,6R)-2-(7-Chloro-6-(4-ethoxybenzyl)-3-methyl-2,3-dihydrobenzofuran-4-yl)-6-(hydroxymethyl)-tetrahydro-2H-pyran-3,4,5-triol] | 9.06 |
| CC(C)n1ncc2cc(Cc3cc([C@@H]4O[C@H](CO)[C@@H](O)[C@H](O)[C@H]4O)ccc3Cl)ccc21 [Example E039, (2S,3R,4R,5S,6R)-2-(4-Chloro-3-((1-isopropyl-1H-indazol-5-yl)methyl)phenyl)-6-(hydroxymethyl)tetrahydro-2H-pyran-3,4,5-triol] | 8.75 |
| CC(C)(O)c1ccc(Cc2cc([C@@H]3O[C@H](CO)[C@@H](O)[C@H](O)[C@H]3O)c3c(c2Cl)OCC3)cc1 [Example E175, (2S,3R,4R,5S,6R)-2-(7-Chloro-6-(4-(2-hydroxypropan-2-yl)benzyl)-2,3-dihydrobenzofuran-4-yl)-6-(hydroxymethyl)tetrahydro-2H-pyran-3,4,5-triol] | 8.69 |
| CCCc1ccc(Cc2cc([C@@H]3O[C@H](CO)[C@@H](O)[C@H](O)[C@H]3O)c3c(c2Cl)OCC3)cc1 [Example E187, (2S,3R,4R,5S,6R)-2-(7-Chloro-6-(4-propylbenzyl)-2,3-dihydrobenzofuran-4-yl)-6-(hydroxymethyl)tetrahydro-2H-pyran-3,4,5-triol] | 8.93 |
| CCc1ccc(Cc2cc([C@@H]3O[C@H](CO)[C@@H](O)[C@H](O)[C@H]3O)c3c(c2Cl)CCCO3)cc1 [Example E017, (2S,3R,4R,5S,6R)-2-(5-Chloro-6-(4-ethylbenzyl)chroman-8-yl)-6-(hydroxymethyl)tetrahydro-2H-pyran-3,4,5-triol] | 9.07 |
| OC[C@H]1O[C@@H](c2ccc(Cl)c(Cc3ccc(N4CCCC4)cc3)c2)[C@H](O)[C@@H](O)[C@@H]1O [Example E221] | 8.66 |
| COc1ccc(Cc2cc([C@@H]3O[C@H](CO)[C@@H](O)[C@H](O)[C@H]3O)c3c(c2F)CCC3)cc1 [Example E006, (2S,3R,4R,5S,6R)-2-(7-Fluoro-6-(4-methoxybenzyl)-2,3-dihydro-1H-inden-4-yl)-6-(hydroxymethyl)tetrahydro-2H-pyran-3,4,5-triol] | 8.69 |
| COc1ccc(Cc2cc([C@@H]3O[C@H](CO)[C@@H](O)[C@H](O)[C@H]3O)c3c(c2Cl)OCCC3)cc1 [Example E156, (2S,3R,4R,5S,6R)-2-(8-Chloro-7-(4-methoxybenzyl)chroman-5-yl)-6-(hydroxymethyl)tetrahydro-2H-pyran-3,4,5-triol] | 8.68 |

The remaining compounds from weak to strong by pIC50, led by results:

| pIC50 | SMILES |
| --- | --- |
| 7.25 | CCc1ccc(C2OCc3ccc([C@@H]4O[C@H](CO)[C@@H](O)[C@H](O)[C@H]4O)cc32)cc1 (stereo partly drawn) [Example E099, (2S,3R,4R,5S,6R)-2-(3-(4-Ethylphenyl)-1,3-dihydroisobenzofuran-5-yl)-6-(hydroxymethyl)-tetrahydro-2H-pyran-3,4,5-triol] |
| 8.22 | N#Cc1ccc(Cc2cc([C@@H]3O[C@H](CO)[C@@H](O)[C@H](O)[C@H]3O)c3c(c2Cl)OCC3)cc1 [Example E186, 4-((7-Chloro-4-((2S,3R,4R,5S,6R)-3,4,5-trihydroxy-6-(hydroxymethyl)tetrahydro-2H-pyran-2-yl)-2,3-dihydrobenzofuran-6-yl)methyl)benzonitrile] |
| 8.38 | CCOc1ccc(Cc2cc([C@@H]3O[C@H](CO)[C@@H](O)[C@H](O)[C@H]3O)c3c(c2Cl)C(C)(C)CO3)cc1 [Example E223, (2S,3R,4R,5S,6R)-2-(4-Chloro-5-(4-ethoxybenzyl)-3,3-dimethyl-2,3-dihydrobenzofuran-7-yl)-6-(hydroxymethyl)-tetrahydro-2H-pyran-3,4,5-triol] |
| 8.53 | Cn1ccc2cc(Cc3cc([C@@H]4O[C@H](CO)[C@@H](O)[C@H](O)[C@H]4O)ccc3Cl)ccc21 [Example E034, (2S,3R,4R,5S,6R)-2-(4-Chloro-3-((1-methyl-1H-indol-5-yl)methyl)phenyl)-6-(hydroxymethyl)tetrahydro-2H-pyran-3,4,5-triol] |
| 8.60 | OC[C@H]1O[C@@H](c2cc(Cc3ccc4c(c3)NCCC4)c(Cl)c3c2CCO3)[C@H](O)[C@@H](O)[C@@H]1O [Example E230, (2S,3R,4R,5S,6R)-2-(7-Chloro-6-((1,2,3,4-tetrahydroquinolin-7-yl)methyl)-2,3-dihydrobenzofuran-4-yl)-6-(hydroxymethyl)-tetrahydro-2H-pyran-3,4,5-triol] |
| 8.94 | OC[C@H]1O[C@@H](c2cc(Cc3ccc(C(F)F)cc3)c(Cl)c3c2CCO3)[C@H](O)[C@@H](O)[C@@H]1O [Example E176, (2S,3R,4R,5S,6R)-2-(7-Chloro-6-(4-(difluoromethyl)benzyl)-2,3-dihydrobenzofuran-4-yl)-6-(hydroxymethyl)tetrahydro-2H-pyran-3,4,5-triol] |
| 9.21 | OC[C@H]1O[C@@H](c2cc(Cc3ccc4c(c3)OCCO4)c(Cl)c3c2CCC3)[C@H](O)[C@@H](O)[C@@H]1O [Example E106, (2S,3R,4R,5S,6R)-2-(7-Chloro-6-((2,3-dihydrobenzo[b][1,4]dioxin-6-yl)methyl)-2,3-dihydro-1H-inden-4-yl)-6-(hydroxymethyl)tetrahydro-2H-pyran-3,4,5-triol] |
| 9.44 | OC[C@H]1O[C@@H](c2cc(Cc3ccc(C4CC4)cc3)c(Cl)c3c2OCO3)[C@H](O)[C@@H](O)[C@@H]1O [Example E158, (2S,3R,4R,5S,6R)-2-(7-Chloro-6-(4-cyclopropylbenzyl)benzo[d][1,3]dioxol-4-yl)-6-(hydroxymethyl)tetrahydro-2H-pyran-3,4,5-triol] |
